According to US20260199323A1, “LIGAND COMPOUNDS FOR E3 UBIQUITIN LIGASE, PROTEIN DEGRADERS DEVELOPED ON BASIS OF LIGAND COMPOUNDS, AND USES THEREOF” (GLUETACS THERAPEUTICS (SHANGHAI) CO., LTD., priority 2021, published 2026):
pIC50: −log10 of the molar value. Read-outs that look alike come from different tables or passages of the source.

Legend:
Type in all cases: cell-based, Human
SW620 = experiment: CCK-8 tumor cell proliferation, SW620; conditions: for IC50 for inhibiting the proliferation of tumor cells, SW620: Table 8, designed based on ER inhibitors, 96 h; for pIC50: Homo sapiens, SW-620, Table 18, FAK inhibitor based, SW620, read-out: IC50 inhibiting proliferation of tumor cells, SW620
Procedure: (§1) The tumor cells used herein were cultured in a cell culture medium listed in table 4 at 37° C. in an incubator with 5% CO2. Prior to experimentation, all cells used were correctly identified by STR profiling, and tested negative for mycoplasma through routine screenings.
(§2) IC50 values of the compounds of the present disclosure (including the compounds in Tables 1 and 3, and compounds of examples) were measured using the Meilun Cell Counting Kit-8 kit from Dalian Meilun Biotech Co., Ltd. Assay details are as follows: tumor cells were seeded in a 96-well plate at a density listed in Table 5. After 24 h, 100 μL of the inoculated cells were treated with 0.5 μL of the compounds of the present disclosure (including the compounds in Tables 1 and 3, and compounds of examples) at 10 different successively decreasing concentrations (starting at the highest concentration of 10 μM; 5-fold serial dilutions). After the cells were treated with the compounds of the present disclosure for a period of time, the cell viability detection reagent was added to the culture medium for cell viability assessment according to the instructions provided with the CCK-8 kit. […] The growth inhibition of the compounds of the present disclosure on cells was plotted by Prism Graphpad software, and the IC50 values of the compounds of the present disclosure were calculated therefrom.

CAL-62 = experiment: CCK-8 tumor cell proliferation, CAL-62; set-up: IC50 for inhibiting the proliferation of tumor cells, CAL-62: scale not given here; conditions: for IC50 for inhibiting the proliferation of tumor cells, CAL-62: Table 8, designed based on ER inhibitors, 72 h; for pIC50: Homo sapiens, Table 18, FAK inhibitor based, CAL-62, read-out: IC50 inhibiting proliferation of tumor cells, CAL-62
Outline: (§3)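 Proliferation was measured by CCK-8. Plated cells received compound 24 h later at ten 5-fold dilutions beginning at 10 μM.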

CCRF-CEM = experiment: CCK-8 tumor cell proliferation, CCRF-CEM; set-up: IC50 for inhibiting the proliferation of tumor cells, CCRF-CEM: scale not given here; conditions: for IC50 for inhibiting the proliferation of tumor cells, CCRF-CEM: Table 8, designed based on ER inhibitors, 96 h
Outline: as §3

Vcap = experiment: CCK-8 tumor cell proliferation, Vcap; conditions: for IC50 for inhibiting the proliferation of tumor cells, Vcap: Table 8, designed based on ER inhibitors, 96 h; for pIC50: Homo sapiens, VCaP, Vcap, read-out: IC50 inhibiting proliferation of tumor cells, Vcap
Procedure: as §1, §2

SR = experiment: CCK-8 tumor cell proliferation, SR; conditions: Homo sapiens; Table 15, ALK inhibitor based; SR; read-out: IC50 inhibiting proliferation of tumor cells, SR
Outline: as §3

MDA-MB-231 = experiment: CCK-8 tumor cell proliferation, MDA-MB-231; conditions: Homo sapiens; Table 15, ALK inhibitor based; MDA-MB-231; read-out: IC50 inhibiting proliferation of tumor cells, MDA-MB-231
Outline: as §3

PC-9 = experiment: CCK-8 tumor cell proliferation, PC-9; conditions: Homo sapiens; Table 15, ALK inhibitor based; PC-9; read-out: IC50 inhibiting proliferation of tumor cells, PC-9
Procedure: The tumor cells used herein were cultured in a cell culture medium listed in table 4 at 37° C. in an incubator with 5% CO2.
as §2, with “After” for “IC50 values of the compounds of the present disclosure (including the compounds in Tables 1 and 3, and compounds of examples) were measured using the Meilun Cell Counting Kit-8 kit from Dalian Meilun Biotech Co., Ltd. Assay details are as follows: tumor cells were seeded in a 96-well plate at a density listed in Table 5. After”

Mino = experiment: CCK-8 tumor cell proliferation, Mino; conditions: Homo sapiens; Table 15, ALK inhibitor based; Mino; read-out: IC50 inhibiting proliferation of tumor cells, Mino
Procedure: as §1, §2

MV-4-11 = experiment: CCK-8 tumor cell proliferation, MV-4-11; conditions: Homo sapiens, MV4-11; Table 15, ALK inhibitor based; MV-4-11; read-out: IC50 inhibiting proliferation of tumor cells, MV-4-11
Procedure: as §1, §2

Jurkat = experiment: CCK-8 tumor cell proliferation, Jurkat; conditions: Homo sapiens, Table 22, NTRK inhibitor based, read-out: IC50 inhibiting proliferation of tumor cells, Jurkat
Procedure: as §1, §2

Compound | IC50 for inhibiting the proliferation of tumor cells, CAL-62 (CAL-62) | IC50 for inhibiting the proliferation of tumor cells, CCRF-CEM (CCRF-CEM) | IC50 for inhibiting the proliferation of tumor cells, Vcap (Vcap) | pIC50 (SR) | pIC50 (MV-4-11) | further results
CCC(=C(c1ccc(O)cc1)c1ccc(N2CCN(Cc3cc(F)c4c(c3)CN(C3CCC(=O)NC3=O)C4=O)CC2)cc1)c1ccc(O)cc1 (stereo not drawn) [GT-04146, 3-(5-((4-(4-(1,2-bis(4-hydroxyphenyl)but-1-en-1-yl)phenyl)piperazin-1-yl)methyl)-7-fluoro-1-oxoisoindolin-2-yl)piperidine-2,6-dione] | A+ | A+ | A+ |  |  | IC50 for inhibiting the proliferation of tumor cells, SW620 (SW620): A+
CCc1cc2c(cc1N1CCC(N3CCN(Cc4cccc5c4CN(C4CCC(=O)NC4=O)C5=O)CC3)CC1)C(C)(C)c1[nH]c3cc(C#N)ccc3c1C2=O (stereo not drawn) [GT-03764, 8-(4-(4-((2-(2,6-dioxopiperidin-3-yl)-1-oxoisoindolin-4-yl)methyl)piperazin-1-yl)piperidin-1-yl)-9-ethyl-6,6-dimethyl-11-oxo-6,11-dihydro-5H-benzo[b]carbazole-3-carbonitrile] |  |  |  | > 7.30 | 7.00 to 7.30 | pIC50 (MDA-MB-231): 7.00 to 7.30; pIC50 (PC-9): 6.30 to 7.00; pIC50 (Mino): 7.00 to 7.30
CNC(=O)c1ccccc1Nc1cc(Nc2cc(C)c(N3CCN(Cc4ccc5c(c4)CN(C4CCC(=O)NC4=O)C5=O)CC3)cc2OC(C)C)ncc1C(F)(F)F (stereo not drawn) [GT-03940, 2-((2-((4-(4-((2-(2,6-dioxopiperidin-3-yl)-1-oxoisoindolin-5-yl)methyl)piperazin-1-yl)-2-isopropoxy-5-methylphenyl)amino)-5-(trifluoromethyl)pyridin-4-yl)amino)-N-methylbenzamide] |  |  |  |  |  | pIC50 (SW620): 7.00 to 7.30; pIC50 (CAL-62): > 7.30; pIC50 (Vcap; Table 18, FAK inhibitor based): 6.00 to 6.30
O=C1CCC(N2C(=O)c3ccc(CBr)cc3C2=O)C(=O)N1 (stereo not drawn) [GT-03855] | A+ | A+ | A+ |  |  | 
CNC(=O)c1ccccc1Nc1cc(Nc2cc(C)c(N3CCN(Cc4ccc5c(c4F)CN(C4CCC(=O)NC4=O)C5=O)CC3)cc2OC(C)C)ncc1C(F)(F)F (stereo not drawn) [GT-03941, 2-((2-((4-(4-((2-(2,6-dioxopiperidin-3-yl)-4-fluoro-1-oxoisoindolin-5-yl)methyl)piperazin-1-yl)-2-isopropoxy-5-methylphenyl)amino)-5-(trifluoromethyl)pyridin-4-yl)amino)-N-methylbenzamide] |  |  |  |  |  | pIC50 (SW620): > 7.30; pIC50 (CAL-62): > 7.30; pIC50 (Vcap; Table 18, FAK inhibitor based): 6.30 to 7.00
CCc1cc2c(cc1N1CCC(N3CCN(Cc4cc5c(cc4F)C(=O)N(C4CCC(=O)NC4=O)C5)CC3)CC1)C(C)(C)c1[nH]c3cc(C#N)ccc3c1C2=O (stereo not drawn) [GT-03759, 8-(4-(4-((2-(2,6-dioxopiperidin-3-yl)-6-fluoro-1-oxoisoindolin-5-yl)methyl)piperazin-1-yl)piperidin-1-yl)-9-ethyl-6,6-dimethyl-11-oxo-6,11-dihydro-5H-benzo[b]carbazole-3-carbonitrile] |  |  |  | > 7.30 | 6.30 to 7.00 | pIC50 (PC-9): 6.30 to 7.00; pIC50 (Mino): 6.00 to 6.30
CCC(=C(c1ccc(O)cc1)c1ccc(N2CCN(Cc3ccc4c(c3F)CN(C3CCC(=O)NC3=O)C4=O)CC2)cc1)c1ccc(O)cc1 (stereo not drawn) [GT-04144, 3-(5-((4-(4-(1,2-bis(4-hydroxyphenyl)but-1-en-1-yl)phenyl)piperazin-1-yl)methyl)-4-fluoro-1-oxoisoindolin-2-yl)piperidine-2,6-dione] | A+ | A+ | A+ |  |  | IC50 for inhibiting the proliferation of tumor cells, SW620 (SW620): A+
CCC(=C(c1ccc(O)cc1)c1ccc(N2CCN(Cc3ccc4c(c3)C(=O)N(C3CCC(=O)NC3=O)C4=O)CC2)cc1)c1ccc(O)cc1 (stereo not drawn) [GT-04148, 5-((4-(4-(1,2-bis(4-hydroxyphenyl)but-1-en-1-yl)phenyl)piperazin-1-yl)methyl)-2-(2,6-dioxopiperidin-3-yl)isoindoline-1,3-dione] | A+ | A+ | A+ |  |  | 
CCC(=C(c1ccc(O)cc1)c1ccc(N2CCN(Cc3cccc4c3CN(C3CCC(=O)NC3=O)C4=O)CC2)cc1)c1ccc(O)cc1 (stereo not drawn) [GT-04147, 3-(4-((4-(4-(1,2-bis(4-hydroxyphenyl)but-1-en-1-yl)phenyl)piperazin-1-yl)methyl)-1-oxoisoindolin-2-yl)piperidine-2,6-dione] | A+ | A+ | A+ |  |  | 
COc1cc(N2CCN(Cc3ccc4c(c3F)CN(C3CCC(=O)NC3=O)C4=O)CC2)ccc1Nc1ncc(Cl)c(Nc2ccccc2P(C)(C)=O)n1 (stereo not drawn) [GT-03776, 3-(5-((4-(4-((5-chloro-4-((2-(dimethylphosphoryl)phenyl)amino)pyrimidin-2-yl)amino)-3-methoxyphenyl)piperazin-1-yl)methyl)-4-fluoro-1-oxoisoindolin-2-yl)piperidine-2,6-dione] |  |  |  | > 7.30 | 6.30 to 7.00 | 
O=C1CCC(N2Cc3cc(CN4CCN(c5cccc(-c6cnc7ccc(N8CCC[C@@H]8c8cccc(F)c8)nn67)n5)CC4)c(F)cc3C2=O)C(=O)N1 (stereo partly drawn) [GT-03866, 3-(6-fluoro-5-((4-(6-(6-((R)-2-(3-fluorophenyl)pyrrolidin-1-yl)imidazo[1,2-b]pyridazin-3-yl)pyridin-2-yl)piperazin-1-yl)methyl)-1-oxoisoindolin-2-yl)piperidine-2,6-dione] |  |  |  |  |  | pIC50 (Jurkat): > 7.30; pIC50 (CCRF-CEM; Homo sapiens, Table 22, NTRK inhibitor based, CCRF-CEM, read-out: IC50 inhibiting proliferation of tumor cells, CCRF-CEM): > 7.30; pIC50 (Vcap; Table 22, NTRK inhibitor based): 7.00 to 7.30
COc1cc(N2CCN(Cc3ccc4c(c3)C(=O)N(C3CCC(=O)NC3=O)C4=O)CC2)ccc1Nc1ncc(Cl)c(Nc2ccccc2P(C)(C)=O)n1 (stereo not drawn) [GT-03780, 5-((4-(4-((5-chloro-4-((2-(dimethylphosphoryl)phenyl)amino)pyrimidin-2-yl)amino)-3-methoxyphenyl)piperazin-1-yl)methyl)-2-(2,6-dioxopiperidin-3-yl)isoindoline-1,3-dione] |  |  |  | 6.30 to 7.00 | 5.30 to 6.00 | 
CCC(=C(c1ccc(O)cc1)c1ccc(N2CCN(Cc3cc4c(cc3F)C(=O)N(C3CCC(=O)NC3=O)C4)CC2)cc1)c1ccc(O)cc1 (stereo not drawn) [GT-04145, 3-(5-((4-(4-(1,2-bis(4-hydroxyphenyl)but-1-en-1-yl)phenyl)piperazin-1-yl)methyl)-6-fluoro-1-oxoisoindolin-2-yl)piperidine-2,6-dione] | A+ | A+ | A+ |  |  | IC50 for inhibiting the proliferation of tumor cells, SW620 (SW620): A+
COc1cc(N2CCN(Cc3ccc4c(c3)CN(C3CCC(=O)NC3=O)C4=O)CC2)ccc1Nc1ncc(Cl)c(Nc2ccccc2P(C)(C)=O)n1 (stereo not drawn) [GT-03775, 3-(5-((4-(4-((5-chloro-4-((2-(dimethylphosphoryl)phenyl)amino)pyrimidin-2-yl)amino)-3-methoxyphenyl)piperazin-1-yl)methyl)-1-oxoisoindolin-2-yl)piperidine-2,6-dione] |  |  |  | > 7.30 | 6.30 to 7.00 | 
